Measured values from patent US20240268388A1, “AGRICULTURAL AND HORTICULTURAL FUNGICIDAL COMPOSITION” (NIPPON SODA CO., LTD., priority 2021, published 2024).
Read-outs that look alike come from different tables or passages of the source.

How the values were obtained:
[1] = test system: soybean rust pathogen (Phakopsora pachyrhizi); experiment: Soybean rust control test (leaf discs); assay type: in vivo
Method: Compounds of component (I) and component (II) were dissolved in dimethyl sulfoxide and diluted with water to the prescribed concentration to prepare a chemical agent solution. A mixture of the prescribed concentration of the chemical agent solution and sterile water was prepared on a microplate, and leaf discs cut from soybean leaves were floated on the microplate. Uredospores of soybean rust pathogen (Phakopsora pachyrhizi) were inoculated and incubated at 25° C. for 9 days. The area percentage of lesions was determined by observing uredospore-forming lesions on the leaf discs, and the control value was calculated. The control value was calculated by the following formula:
Control value (%)=100−{Area percentage of lesions in treatment plot/Area percentage of lesions in untreatment plot}×100.
The results are shown in Tables 8 to 18, along with the expected values calculated as below. Each expected values was calculated from the fungicidal efficacy of a single application of compound of component (I) and the fungicidal efficacy of a single application of compound of component (II) by using Colby's equation:
[formula] • where E represents the expected value of the control value for the composition containing component (I) and component (II), M represents the control value (%) when the component (I) is used alone, and N represents the control value (%) when the component (II) is used alone. When the measured control value for the composition containing component (I) and component (II) is greater than the expected value E, the composition containing component (I) and composition (II) should exert a synergistic effect.

[2] = test system: cucumber anthracnose pathogen (Colletotrichum lagenarium); experiment: Fungicidal test for cucumber anthracnose (microplate, turbidity at 405 nm); assay type: cell-based; conditions: for inhibition at 0.025 ppm / inhibition at 0.1 ppm / inhibition at 0.4 ppm: Colletotrichum orbiculare, read-out: growth inhibition rate
Method: The compounds were dissolved in dimethyl sulfoxide to prepare a chemical agent solution.
A mixture of the prescribed concentration of the chemical agent solution, cucumber anthracnose pathogen (Colletotrichum lagenarium) conidia, and Vogel medium was prepared on a microplate and incubated at 20° C. in the dark for 7 days.
Each expected value was calculated using Colby's equation:
[formula] • where E represents the expected value of the growth inhibition rate (%), M represents the growth inhibition rate (%) when the component (I) is used alone, and N represents the growth inhibition rate (%) when the component (II) is used alone.

[3] = Table 19, component (II) alone (component (I): None): Ipflufenoquin 0.000026, Iminoctadine trialbesilate 0.0032, Cyflufenamid 10, Cyprodinil 0.00013, Potassium bicarbonate 0.08, Thiophanate-methyl 0.08, Picarbutrazox 0.016, Fludioxonil 0.0032, Florylpicoxamid 0.0032, Metyltetraprole 0.08, Mefentrifluconazole 0.4 ppm
[4] = Table 20, component (II) alone (component (I): None): Ipflufenoquin 0.00064, Iminoctadine trialbesilate 0.0032, Cyflufenamid 10, Cyprodinil 0.00013, Potassium bicarbonate 0.08, Thiophanate-methyl 0.4, Picarbutrazox 0.016, Fludioxonil 0.0032, Florylpicoxamid 0.0032, Metyltetraprole 0.08, Mefentrifluconazole 0.4 ppm
[5] = Table 21, component (II) alone (component (I): None): Ipflufenoquin 0.00064, Iminoctadine trialbesilate 0.0032, Cyflufenamid 10, Cyprodinil 0.00013, Potassium bicarbonate 0.08, Thiophanate-methyl 0.4, Picarbutrazox 0.00064, Fludioxonil 0.0032, Florylpicoxamid 0.0032, Metyltetraprole 0.08, Mefentrifluconazole 0.4 ppm
[6] = Table 22, component (II) alone (component (I): None): Ipflufenoquin 0.00064, Iminoctadine trialbesilate 0.0032, Cyflufenamid 10, Cyprodinil 0.00013, Potassium bicarbonate 0.08, Thiophanate-methyl 0.4, Picarbutrazox 0.00064, Fludioxonil 0.0032, Florylpicoxamid 0.0032, Metyltetraprole 0.08, Mefentrifluconazole 0.4 ppm
[7] = Table 23, component (II) alone (component (I): None): Ipflufenoquin 0.00064, Iminoctadine trialbesilate 0.0032, Cyflufenamid 10, Cyprodinil 0.000026, Potassium bicarbonate 0.08, Thiophanate-methyl 0.4, Picarbutrazox 0.00064, Fludioxonil 0.00064, Florylpicoxamid 0.0032, Metyltetraprole 0.08, Mefentrifluconazole 0.4 ppm
[8] = Table 24, component (II) alone (component (I): None): Ipflufenoquin 0.00064, Iminoctadine trialbesilate 0.0032, Cyflufenamid 10, Cyprodinil 0.00013, Potassium bicarbonate 0.08, Thiophanate-methyl 0.4, Picarbutrazox 0.00064, Fludioxonil 0.00013, Florylpicoxamid 0.0032, Metyltetraprole 0.08, Mefentrifluconazole 0.4 ppm
[9] = Table 14, component (II) alone (component (I): None): Inpyrfluxam 0.00025, Chlorothalonil 0.006, Thiophanate-methyl 0.0001, Tebuconazole 0.000025, Trifloxystrobin 0.0001, Fluazinam 0.006, Prothioconazole 0.000025, Florylpicoxamid 0.0001, Metominostrobin 0.0004 ppm
[10] = Table 16, component (II) alone (component (I): None): Inpyrfluxam 0.000025, Chlorothalonil 0.006, Thiophanate-methyl 0.0001, Tebuconazole 0.000025, Trifloxystrobin 0.0001, Fluazinam 0.006, Prothioconazole 0.000025, Florylpicoxamid 0.0001, Metominostrobin 0.0004 ppm
[11] = Table 17, component (II) alone (component (I): None): Inpyrfluxam 0.000026, Chlorothalonil 0.02, Thiophanate-methyl 0.0004, Tebuconazole 0.0001, Trifloxystrobin 0.0001, Fluazinam 0.006, Prothioconazole 0.000025, Florylpicoxamid 0.0001, Metominostrobin 0.0004 ppm

CC(C)ON=C1CN(C(=O)Cc2ccc(-c3noc(C(F)(F)F)n3)cc2)C1 [Compound 7] showed a control value ([1]; component (I) alone, 0.0063 ppm) of 16%, a control value ([1]; component (I) alone, 0.025 ppm) of 32% and a control value ([1]; component (I) alone, 0.1 ppm) of 64%. For the same molecule, the control value ([1]; component (I) alone, 0.4 ppm) was 94%.

CCON=C1CCN(C(=O)Cc2ccc(-c3noc(C(F)(F)F)n3)cc2)CC1 [Compound 8] showed a control value ([1]; Compound 8 alone, 0.0063 ppm) of 10%, a control value ([1]; Compound 8 alone, 0.025 ppm) of 16% and a control value ([1]; Compound 8 alone, 0.1 ppm) of 32%. For the same molecule, the control value ([1]; Compound 8 alone, 0.4 ppm) was 75%, the control value ([1]; Compound 8 alone, 1.6 ppm) was 93% and the inhibition at 0.025 ppm ([2]; Compound 8 alone) was 58%. It also gave an inhibition at 0.1 ppm ([2]; Compound 8 alone) of 55% and an inhibition at 0.4 ppm ([2]; Compound 8 alone) of 85%.

CON=C1CCN(C(=O)Cc2ccc(-c3noc(C(F)(F)F)n3)cc2)CC1 [Compound 9] gave a control value ([1]; Compound 9 alone, 0.0063 ppm) of 13%, a control value ([1]; Compound 9 alone, 0.025 ppm) of 34% and a control value ([1]; Compound 9 alone, 0.1 ppm) of 49%. For the same molecule, the control value ([1]; Compound 9 alone, 0.4 ppm) was 96%, the inhibition at 0.025 ppm ([2]; Compound 9 alone) was 42% and the inhibition at 0.1 ppm ([2]; Compound 9 alone) was 49%. The inhibition at 0.4 ppm ([2]; Compound 9 alone) was 83%.

In the case of O=C(Cc1ccc(-c2noc(C(F)(F)F)n2)cc1)N1CCC(=NOCC(F)(F)F)CC1 [Compound 10], the control value ([1]; Compound 10 alone, 0.0063 ppm) is reported as 0%, the control value ([1]; Compound 10 alone, 0.025 ppm) is reported as 27% and the control value ([1]; Compound 10 alone, 0.1 ppm) is reported as 42%. The control value ([1]; Compound 10 alone, 0.4 ppm) was 66%, the control value ([1]; Compound 10 alone, 1.6 ppm) was 94% and the inhibition at 0.025 ppm ([2]; Compound 10 alone) was 63%. It also gave an inhibition at 0.1 ppm ([2]; Compound 10 alone) of 52% and an inhibition at 0.4 ppm ([2]; Compound 10 alone) of 96%.

In the case of CC(C)ON=C1CCN(C(=O)Cc2ccc(-c3noc(C(F)(F)F)n3)cc2)CC1 [Compound 11], the control value ([1]; Compound 11 alone, 0.0063 ppm) is reported as 6%, the control value ([1]; Compound 11 alone, 0.025 ppm) is reported as 15% and the control value ([1]; Compound 11 alone, 0.1 ppm) is reported as 52%. The control value ([1]; Compound 11 alone, 0.4 ppm) was 70% and the control value ([1]; Compound 11 alone, 1.6 ppm) was 84%.

O=C(Cc1ccc(-c2noc(C(F)(F)F)n2)cc1)N1CCC(=NO)CC1 [Compound 12] was tested, and the control value ([1]; Compound 12 alone, 0.0063 ppm) was 21%, the control value ([1]; Compound 12 alone, 0.025 ppm) was 33% and the control value ([1]; Compound 12 alone, 0.1 ppm) was 64%. For the same molecule, the control value ([1]; Compound 12 alone, 0.4 ppm) was 92%.

Molecule O=C(Cc1ccccc1)N/C(=N\OCC1CC1)c1c(C(F)(F)F)ccc(F)c1F [Cyflufenamid] has a growth inhibition rate [2, 3] of 64%, a growth inhibition rate [2, 4] of 64% and a growth inhibition rate [2, 5] of 64%. For the same molecule, the growth inhibition rate [2, 6] was 64%, the growth inhibition rate [2, 7] was 64% and the growth inhibition rate [2, 8] was 64%.

For Cc1cc(C2CC2)nc(Nc2ccccc2)n1 [Cyprodinil], the growth inhibition rate [2, 3] was 12%, the growth inhibition rate [2, 4] was 12% and the growth inhibition rate [2, 5] was 12%. For the same molecule, the growth inhibition rate [2, 6] was 12%, the growth inhibition rate [2, 7] was 0% and the growth inhibition rate [2, 8] was 12%.

With N#Cc1c[nH]cc1-c1cccc2c1OC(F)(F)O2 [Fludioxonil] the growth inhibition rate [2, 3] was 64%, the growth inhibition rate [2, 4] was 64% and the growth inhibition rate [2, 5] was 64%. For the same molecule, the growth inhibition rate [2, 6] was 64%, the growth inhibition rate [2, 7] was 0% and the growth inhibition rate [2, 8] was 0%.

With CCCCCCCCCCCCc1ccc(S(=O)(=O)O)cc1.CCCCCCCCCCCCc1ccc(S(=O)(=O)O)cc1.CCCCCCCCCCCCc1ccc(S(=O)(=O)O)cc1.NC(N)=NCCCCCCCCNCCCCCCCCN=C(N)N [Iminoctadine trialbesilate] the growth inhibition rate [2, 3] was 22%, the growth inhibition rate [2, 4] was 22% and the growth inhibition rate [2, 5] was 22%. The growth inhibition rate [2, 6] was 22%, the growth inhibition rate [2, 7] was 22% and the growth inhibition rate [2, 8] was 22%.

In the case of CC(O)(Cn1cncn1)c1ccc(Oc2ccc(Cl)cc2)cc1C(F)(F)F (stereo not drawn) [Mefentrifluconazole], the growth inhibition rate [2, 3] is reported as 64%, the growth inhibition rate [2, 4] is reported as 64% and the growth inhibition rate [2, 5] is reported as 64%. The growth inhibition rate [2, 6] was 64%, the growth inhibition rate [2, 7] was 64% and the growth inhibition rate [2, 8] was 64%.

Work on CNC(=O)/C(=N/OC)c1ccccc1Oc1ccccc1 [Metominostrobin] yielded a control value [1, 9] of 27%, a control value [1, 10] of 27% and a control value [1, 11] of 27%.

With Cc1cccc(-n2nnn(C)c2=O)c1COc1ccn(-c2ccc(Cl)cc2)n1 [Metyltetraprole] the growth inhibition rate [2, 3] was 77%, the growth inhibition rate [2, 4] was 77% and the growth inhibition rate [2, 5] was 77%. For the same molecule, the growth inhibition rate [2, 6] was 77%, the growth inhibition rate [2, 7] was 77% and the growth inhibition rate [2, 8] was 77%.

Cn1nnnc1/C(=N\OCc1cccc(NC(=O)OC(C)(C)C)n1)c1ccccc1 [Picarbutrazox] gave a growth inhibition rate [2, 3] of 87%, a growth inhibition rate [2, 4] of 87% and a growth inhibition rate [2, 5] of 0%. It also gave a growth inhibition rate [2, 6] of 0%, a growth inhibition rate [2, 7] of 0% and a growth inhibition rate [2, 8] of 0%.

O=C([O-])O.[K+] [Potassium bicarbonate] gave a growth inhibition rate [2, 3] of 53%, a growth inhibition rate [2, 4] of 53% and a growth inhibition rate [2, 5] of 53%. The growth inhibition rate [2, 6] was 53%, the growth inhibition rate [2, 7] was 53% and the growth inhibition rate [2, 8] was 53%.

In the case of COC(=O)NC(=S)Nc1ccccc1NC(=S)NC(=O)OC [Thiophanate-methyl], the control value [1, 9] is reported as 27%, the control value [1, 10] is reported as 27% and the control value [1, 11] is reported as 66%. The growth inhibition rate [2, 3] was 0%, the growth inhibition rate [2, 4] was 0% and the growth inhibition rate [2, 5] was 0%. It also gave a growth inhibition rate [2, 6] of 0%, a growth inhibition rate [2, 7] of 0% and a growth inhibition rate [2, 8] of 0%.
